Results reported in patent publication US11352322B2, “Cyclopropyl-amide compounds as dual LSD1/HDAC inhibitors” (Jubilant Epicore LLC, priority 2016, dated 2022).
Where a name gives a salt, the structure may show the parent alone. Read-outs that look alike come from different tables or passages of the source.

Columns and labels:
[1] = Metabolic stability in liver microsomes, HLM; details: 1 μM, NADPH
Description: (§1) The microsomal suspension was prepared by adding liver microsomes to 100 mM potassium phosphate buffer (pH7.4) to give a final protein concentration of 0.5 mg/mL. The stock solution of NCE (10 mM in DMSO) was added to the microsomes to provide a final concentration of 1 μM. […] Samples were vortexed and centrifuged at 5,000 rpm for 10 min to remove proteins. Supernatant were analyzed on LC-MS/MS.

MM1S = test: Anticancer activity: Alamar Blue assay, MM1S; assay type: cell-based; details: Homo sapiens, MM1.S, read-out: MM1S EC50
LSD1 = LSD1 (Homo sapiens (Human), UniProt O60341); test: TR-FRET Assay for LSD1; details: read-out: LSD1 IC50
Description: TR-FRET Assay for LSD1 (Perkin Elmer)
Tranylcypromine (TCP), LSD1 inhibitor was procured from Selleckchem. […] Stop Solution containing 300 μM tranylcypromine in 1× LANCE Detection Buffer was added to the wells and incubated for 5 min at RT. Then, Detection mix containing 2 nM Eu-Ab and 50 nM ULight-Streptavidin in 1× LANCE Detection Buffer was prepared and added to the reaction mix. This mixture was incubated for 1 hour at room temperature.

[2] = Metabolic stability in liver microsomes, MLM; details: 1 μM, NADPH
Description: as §1

[3] = biological target: HDAC6 human recombinant enzyme (Homo sapiens (Human), UniProt Q9UBN7); test: Histone Deacetylase Assay (BPS Biosciences), HDAC6; assay type: biochemical
Source text: Histone Deacetylase Assay (BPS Biosciences)
Histone deacetylase assay was done as per manufacturer's instructions.

Chain of HDAC6 human recombinant enzyme (Q9UBN7 whole entry): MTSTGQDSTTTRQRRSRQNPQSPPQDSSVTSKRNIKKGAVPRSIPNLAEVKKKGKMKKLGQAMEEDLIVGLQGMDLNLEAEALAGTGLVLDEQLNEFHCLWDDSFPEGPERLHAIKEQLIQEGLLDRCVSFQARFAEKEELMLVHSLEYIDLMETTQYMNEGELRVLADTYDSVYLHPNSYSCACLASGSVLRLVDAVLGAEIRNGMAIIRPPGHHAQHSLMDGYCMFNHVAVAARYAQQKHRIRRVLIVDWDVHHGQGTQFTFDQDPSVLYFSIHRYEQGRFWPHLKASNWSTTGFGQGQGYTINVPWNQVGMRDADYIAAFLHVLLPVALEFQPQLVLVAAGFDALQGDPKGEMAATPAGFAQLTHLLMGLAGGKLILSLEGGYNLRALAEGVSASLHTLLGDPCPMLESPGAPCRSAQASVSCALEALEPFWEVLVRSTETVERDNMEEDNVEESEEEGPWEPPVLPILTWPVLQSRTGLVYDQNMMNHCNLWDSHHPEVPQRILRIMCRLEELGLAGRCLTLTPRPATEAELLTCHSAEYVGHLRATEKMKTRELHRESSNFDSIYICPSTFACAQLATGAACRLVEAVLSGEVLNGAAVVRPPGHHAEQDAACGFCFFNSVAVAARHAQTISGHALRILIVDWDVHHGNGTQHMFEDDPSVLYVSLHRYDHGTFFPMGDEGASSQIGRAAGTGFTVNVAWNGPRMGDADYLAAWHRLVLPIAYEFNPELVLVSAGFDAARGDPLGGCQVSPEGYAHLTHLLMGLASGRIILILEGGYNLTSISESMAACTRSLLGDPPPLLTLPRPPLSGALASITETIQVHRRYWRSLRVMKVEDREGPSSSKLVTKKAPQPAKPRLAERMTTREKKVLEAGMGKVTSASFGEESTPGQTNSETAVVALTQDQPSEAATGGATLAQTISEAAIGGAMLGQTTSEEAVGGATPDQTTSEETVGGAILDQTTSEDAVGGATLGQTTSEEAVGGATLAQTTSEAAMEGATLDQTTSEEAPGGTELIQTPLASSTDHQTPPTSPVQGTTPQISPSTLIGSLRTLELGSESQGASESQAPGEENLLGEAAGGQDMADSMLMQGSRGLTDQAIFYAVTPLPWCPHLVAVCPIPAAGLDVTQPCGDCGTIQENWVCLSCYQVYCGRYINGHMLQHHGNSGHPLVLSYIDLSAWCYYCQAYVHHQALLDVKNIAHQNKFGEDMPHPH

| EC50 (MM1S; MM1S cells) [nM] | IC50 [3] [nM] | Compound | Metabolic stability HLM % remaining in 30 min [1] [%] | EC50 (MM1S) [nM] | IC50 (LSD1) [nM] | Metabolic stability MLM % remaining in 30 min [2] [%] |
| --- | --- | --- | --- | --- | --- | --- |
|  |  | O=C(/C=C/c1ccc(CNC2CC2c2ccc(-c3cncnc3)cc2)cc1)NO (stereo not shown) [Example 7, (E)-N-hydroxy-3-(4-(((2-(4-(pyrimidin-5-yl)phenyl)cyclopropyl)amino)methyl)phenyl)acrylamide TFA Salt] | 70 | 48 | 27 | < 5 |
| 12 | 134 | O=C(NO)c1cnc(N2CCC(CNC3CC3c3ccc(-c4ccc(F)cc4)cc3)CC2)nc1 (stereo not shown) [Example 15, 2-(4-(((2-(4′-fluoro-[1,1′-biphenyl]-4-yl)cyclopropyl)amino)methyl)piperidin-1-yl)-N-hydroxypyrimidine-5-carboxamide TFA Salt] |  |  | 95 |  |
|  |  | O=C(NO)c1ccc(N2CCC(CNC3CC3c3ccc(F)cc3)CC2)cc1 (stereo not shown) [Example 22, 4-(4-(((2-(4-fluorophenyl)cyclopropyl)amino)methyl)piperidin-1-yl)-N-hydroxybenzamide TFA Salt] | 60 | 44 | 6400 | 38 |
|  |  | O=C(NO)c1ccc(CNC2CC2c2ccccc2)cc1 (stereo not shown) [Example 28, N-hydroxy-4-(((2-phenylcyclopropyl)amino)methyl)benzamide TFA Salt] | 73 |  | 23 | 35 |
|  | > 1000 | O=C(NO)C1CCC(NC2CC2c2ccccc2)CC1 (stereo not shown) [Example 33, 4-(2-Phenyl-cyclopropylamino)-cyclohexanecarboxylic Acid Hydroxyamide TFA Salt] |  |  | 2250 |  |
|  |  | Cc1noc(C)c1-c1ccc(C2CC2NCC2CCN(Cc3ccc(C(=O)NO)cc3)CC2)cc1 (stereo not shown) [Example 37, 4-((4-(((2-(4-(3,5-dimethylisoxazol-4-yl)phenyl)cyclopropyl)amino)methyl)piperidin-1-yl)methyl)-N-hydroxybenzamide TFA salt] | 86 | 1730 | 43 | 55 |
|  |  | O=C(NO)c1ccc(CN2CCC(CNC3CC3c3ccc(-c4cncnc4)cc3)CC2)cc1 (stereo not shown) [Example 38, N-hydroxy-4-((4-(((2-(4-(pyrimidin-5-yl)phenyl)cyclopropyl)amino)methyl)piperidin-1-yl)methyl)benzamide TFA Salt] | 87 | 3640 | 53 | > 95 |
|  |  | Cc1noc(C)c1-c1ccc(C2CC2NCC2CCN(Cc3ccc(C(=O)NO)cn3)CC2)cc1 (stereo not shown) [Example 39, 6-((4-(((2-(4-(3,5-dimethylisoxazol-4-yl)phenyl)cyclopropyl)amino)methyl)piperidin-1-yl)methyl)-N-hydroxynicotinamide TFA Salt] | 87 | 2970 | 34 | > 95 |
|  | 74 | O=C(NO)c1ccc(Cn2cc(CNC3CC3c3ccccc3)nn2)cc1 (stereo not shown) [Example 41, N-hydroxy-4-((4-(((2-phenylcyclopropyl)amino)methyl)-1H-1,2,3-triazol-1-yl)methyl)benzamide TFA Salt] |  |  | 319 |  |
|  |  | O=C(NO)c1ccc(CCCN2CCC(CNC3CC3c3ccc(F)c(F)c3)CC2)cc1 (stereo not shown) [Example 50, 4-(3-(4-(((2-(3,4-difluorophenyl)cyclopropyl)amino)methyl)piperidin-1-yl)propyl)-N-hydroxybenzamide TFA Salt] | 86 | 35 | 29 | 80 |
|  |  | O=C(NO)c1ccc(CCCN2CCC(CNC3CC3c3ccc(C(=O)N4CCOCC4)cc3)CC2)cc1 (stereo not shown) [Example 53, N-hydroxy-4-(3-(4-(((2-(4-(morpholine-4-carbonyl)phenyl)cyclopropyl)amino)methyl)piperidin-1-yl)propyl)benzamide TFA Salt] | 89 |  | 22 | 82 |
|  |  | O=C(NO)c1ccc(CCCN2CCC(CNC3CC3c3ccc(C(=O)N4CCCCC4)cc3)CC2)cc1 (stereo not shown) [Example 54, N-hydroxy-4-(3-(4-(((2-(4-(piperidine-1-carbonyl)phenyl)cyclopropyl)amino)methyl)piperidin-1-yl)propyl)benzamide TFA Salt] | 65 |  | 23 | 72 |
|  |  | N#Cc1ccc(-c2ccc(C3CC3NCC3CCN(CCCc4ccc(C(=O)NO)cc4)CC3)cc2)cc1 (stereo not shown) [Example 59, 4-(3-(4-(((2-(4′-cyano-[1,1′-biphenyl]-4-yl)cyclopropyl)amino)methyl)piperidin-1-yl)propyl)-N-hydroxybenzamide TFA Salt] | 76 |  | 32 | 75 |
|  |  | Cn1cc(-c2ccc(C3CC3NCC3CN(CCCc4ccc(C(=O)NO)cc4)C3)cc2)cn1 (stereo not shown) [Example 63, N-hydroxy-4-(3-(3-(((2-(4-(1-methyl-1H-pyrazol-4-yl)phenyl)cyclopropyl)amino)methyl)azetidin-1-yl)propyl)benzamide TFA Salt] | 86 | 191 | 31 | 69 |
|  |  | O=C(NO)c1ccc(CCC(=O)N2CCC(NC3CC3c3ccccc3)CC2)cc1 (stereo not shown) [Example 83, N-hydroxy-4-(3-oxo-3-(4-((2-phenylcyclopropyl)amino)piperidin-1-yl)propyl)benzamide TFA Salt] | 69 | 153 | 90 | 82 |
|  |  | O=C(NO)c1ccc(CS(=O)(=O)NCCN2CCC(CNC3CC3c3ccccc3)CC2)cc1 (stereo not shown) [Example 86, N-hydroxy-4-((N-(2-(4-(((2-phenylcyclopropyl)amino)methyl)piperidin-1-yl)ethyl)sulfamoyl)methyl)benzamide TFA Salt] | 71 | 676 | 18 | 58 |
|  |  | O=C(NO)c1ccc(OCCN2CCC(CNC3CC3c3ccc(F)cc3)CC2)nc1 (stereo not shown) [Example 96, 6-(2-(4-(((2-(4-fluorophenyl)cyclopropyl)amino)methyl)piperidin-1-yl)ethoxy)-N-hydroxynicotinamide TFA Salt] | 93 | > 10000 | 22 | 89 |
|  |  | O=C(NO)c1csc(CCCN2CCC(CNC3CC3c3ccc(-c4ccc(F)cc4)cc3)CC2)n1 (stereo not shown) [Example 111, 2-(3-(4-(((2-(4′-fluoro-[1,1′-biphenyl]-4-yl)cyclopropyl)amino)methyl)piperidin-1-yl)propyl)-N-hydroxythiazole-4-carboxamide TFA Salt] | 95 | 3060 | 22 | 91 |
|  |  | Cc1noc(C)c1-c1ccc(C2CC2NCC2CCN(C(=O)/C=C/c3ccc(C(=O)NO)cc3)CC2)cc1 (stereo not shown) [Example 116, (E)-4-(3-(4-(((2-(4-(3,5-dimethylisoxazol-4-yl)phenyl)cyclopropyl)amino)methyl)piperidin-1-yl)-3-oxoprop-1-en-1-yl)-N-hydroxybenzamide TFA Salt] | 63 | 157 | 69 | 50 |
